Source: article PMC12040169 (PLOS Biology, 2025)

Assay: in vitro
Conditions: human, hela cells, % viability

Point of comparison: `O=C(c1cc(F)c(F)cc1F)N1CCC2(CCN(Cc3cc(=O)[nH]c(=O)[nH]3)C2)C1` (centres unmarked) [CBK132141], viability at 28.5 h, 10 µM 91.4%. Against it:
- O=C(CCS(=O)(=O)c1ccccc1)NCc1ccccc1OC1CCNC1 (centres unmarked) [CBK028296T] — higher, 95.9%
- CCC1CNCCN1c1nccnc1OCCOc1cccnc1 (centres unmarked) [CBK001559F] — higher, 121%
- Oc1ccc(C2N=C(c3ccccc3)N=C(c3ccccc3)N2)cc1 (centres unmarked) [CBK018755] — higher, 95.4%
- O=C1COc2ccc(C(=O)CSc3nnc(C4CC4)n3C3CC3)cc2N1 [CBK297110] — lower, 73.4%
- CS(=O)(=O)c1ccc(-c2ccc(COC3CCN(C(=O)CCCc4ccc(F)cc4)CC3)cn2)cc1 [CBK162229T] — higher, 91.6%
- COc1nccc(N2CCC3(CC(=O)NC3=O)C2)c1C#N (centres unmarked) [CBK307246] — higher, 108%
- Cc1ccc(C(=O)NCCc2nnc3ccc(Cl)nn23)cc1 [CBK287636] — lower, 89.5%
- Cc1cc(C(=O)NC2(C#N)CCSCC2)n(C)n1 [CBK306386] — lower, 90.9%
- Cc1ccc2c(c1)C1(CC(=O)N(CC(=O)O)C1=O)C(=O)N2C (centres unmarked) [CBK076104] — higher, 96.8%
- COC(=O)C1CCN(Cc2ccc(-c3nnn(CC(=O)NCc4ccc(C)cc4)n3)cc2)C1 (centres unmarked) [CBK155406T] — higher, 105%
- Nc1nnnn1CC(=O)N/N=C/c1cc2c(cc1[N+](=O)[O-])OCO2 [CBK262187] — higher, 117%
- CCCOc1ccc(C(=O)C(CN(CC)CC)Oc2ccccc2)cc1 (centres unmarked) [CBK011944C] — higher, 94.7%
- Cc1nc(-c2ccccc2)sc1CNC(=O)CCC(F)(F)F [CBK092365] — higher, 102%
- COc1ccc(-c2nc3ccccc3o2)cc1NC(=O)C(C)Oc1ccc(Cl)cc1Cl (centres unmarked) [CBK266787] — lower, 76.4%
- CCCc1ccc(S(=O)(=O)Nc2nc(-c3cccc([N+](=O)[O-])c3)cs2)cc1 [CBK000987] — lower, 88.1%
- CCCC/C=C/c1cncc(N[C@H](CO)C(C)C)n1 [CBK065314] — higher, 97%
- O=C(O)c1c[nH]c2ccc(S(=O)(=O)N3CCOCC3)cc12 [CBK011237] — higher, 97.3%
- O=C(c1ccncc1)N(c1ccc2oc3c(c2c1)CCCC3)S(=O)(=O)c1cccc([N+](=O)[O-])c1 [CBK265705] — higher, 106%
- O=C(O)C1CCN(C(=O)[C@@H]2Cc3ccccc3CN2)CC1 [CBK286638] — lower, 91%
- Cc1cc(OCC(O)CN2CCN(CCO)CC2)ccc1C(C)C (centres unmarked) [CBK278254C] — lower, 89%
- Cc1nn(-c2ccc(F)cc2)c(C)c1CNC(=O)CCC1CCCO1 (centres unmarked) [CBK281456] — lower, 86.8%
- O=C(Nc1cccc(Cl)c1Cl)c1cnccn1 [CBK288243] — higher, 105%
- CCCOc1ncccc1O [CBK001459] — lower, 89.7%
- Cc1cc2c(o1)c1cnn(CC(=O)N(C(C)C)C(C)C)c(=O)c1n2C [CBK282392] — lower, 83.2%
- CSCCC(NS(=O)(=O)c1ccc(I)cc1)C(=O)O (centres unmarked) [CBK268768] — higher, 98.6%
- O=C(N[C@@H](Cc1ccc(OCc2ccc(Cl)cc2Cl)cc1)C(=O)O)C1CCCC1 [CBK017610] — lower, 82.9%
- O=c1oc2ccccc2c2c1nnn2CCCN1CCOCC1 [CBK261470C] — higher, 95.2%
- CC1CN(Cc2cccc(CNc3ncccc3C#N)c2)CCO1 (centres unmarked) [CBK303994] — higher, 95.7%
- CC(C)Nc1nc2ccccc2nc1SCCC(=O)O [CBK107858] — higher, 106%
- COc1cc(-c2cc(C(=O)O)c3c(-c4ccc(C)cc4)n[nH]c3n2)ccc1O [CBK287268] — lower, 83.9%
- COc1ccc(CCNC(=O)N(CCC#N)C2CCCCC2)cc1OC [CBK156363] — higher, 108%
- O=P(O)(CN1CCOCC1)CN1CCOCC1 [CBK260914] — higher, 97.6%
- Cc1cc(C)n(CCC(=O)NCC(c2ccccn2)N2CCOCC2)n1 (centres unmarked) [CBK307396] — higher, 105%
- Cc1c(N)c(=O)n2nc(C(F)(F)F)nc2n1C [CBK020172] — lower, 90.4%
- COc1ccc2[nH]cc(CCNC(=O)c3ccc(C)nc3N3CCOCC3)c2c1 [CBK106203] — higher, 108%
- CC(C)CC1(C(CCN2C(=O)c3ccccc3C2=O)C(=O)NO)CCN(Cc2cccc(F)c2)C1=O (centres unmarked) [CBK013032] — lower, 83.8%
- O=C(CN1CCC(c2ccc(F)cc2)CC1)Nc1nccs1 [CBK283566] — lower, 90%
- CC(NC(=O)CCn1cncn1)c1cccs1 (centres unmarked) [CBK282199] — higher, 103%
- CCOc1cc(NC2CCN(C(=O)C(C)CC3CCCC3)CC2)ncn1 (centres unmarked) [CBK306176] — lower, 85.3%
- O=C(CSCc1nc(O)c2c3c(sc2n1)CCCC3)NC1CCCCC1 [CBK265684] — lower, 83.5%
- CC(C)c1ccc(/C=C/C(=O)NC2CC2)cc1 [CBK149640] — higher, 105%
- CCCC(=O)N1CCN(Cc2ccc3c(c2)OCO3)CC1 [CBK074367] — higher, 92.7%
- Cc1cc2c(s1)c1cnn(Cc3cccnc3)c(=O)c1n2C [CBK284154] — lower, 79.1%
- Cc1nn(Cc2cccc(C(N)=O)c2)c(C)c1Br [CBK022255] — lower, 86.9%
- COCCNc1nccnc1-c1ccccc1F [CBK038044] — higher, 97.6%
- CC(=O)Nc1cccc(Oc2nccnc2-c2ccc(C)cc2C)c1 [CBK106986] — higher, 95.3%
- COC(=O)c1ccc(S(=O)(=O)C(F)(F)F)cc1N [CBK018172] — higher, 114%
- CN1C(=O)c2cccc3c(S(=O)(=O)N4CCN(S(=O)(=O)c5ccc6c7c(cccc57)C(=O)N6C)CC4)ccc1c23 [CBK269140] — higher, 98.2%
- COc1ccccc1-c1nn2c(Cn3cnc4ccccc43)nnc2s1 [CBK268218] — higher, 93%
- CCCc1ccc(-c2cc(C(=O)NCc3cccnc3)c3ccccc3n2)cc1 [CBK300494] — higher, 92.6%
- O=[N+]([O-])c1cnc(NCCCn2ccnc2)c([N+](=O)[O-])c1 [CBK262511] — higher, 94.4%
- O=C(COc1ccccc1)c1cn(CC(=O)N2CCc3ccccc32)c2ccccc12 [CBK267659] — higher, 93.5%
- Cc1cc(NC(=O)Cn2nc(C(F)(F)F)c(Cl)c2C)no1 [CBK018709] — lower, 87.3%
- Cc1cc(C)c2c(C(C)(C)C)nn(-c3ccc(C(=O)O)cc3)c2n1 [CBK267481] — lower, 88.4%
- CC(=O)N1CCC(N2CC[C@H](c3nnc(C(C)(C)C)o3)C2)CC1 [CBK289404] — lower, 82.4%
- CC(=O)Nc1cccc(C(=O)N2CCN(Cc3ccc4c(c3)OCO4)CC2)c1 [CBK270031] — lower, 89.2%
- CN(C)c1ccc(CNC(=O)Cn2nc(C(=O)O)c3ccccc3c2=O)cc1 [CBK295330] — higher, 105%
- Cn1c(=O)n(Cc2ccc(Cl)cc2)c2cccnc21 [CBK282333] — higher, 101%
- CCc1nn(CC(=O)NC(C)(C)C)c(=O)c2cc3ccsc3n12 [CBK284183] — higher, 105%
- O=C(O)/C(=N\O)c1ccc(CCc2ccccc2)s1 [CBK261213] — lower, 90.8%
- O=C(CN1C(=O)N2CCCN=C2c2ccccc21)NCc1ccccc1 [CBK284403] — lower, 84.8%
- COc1ccccc1-c1nccnc1OCc1ccccc1 [CBK106817] — higher, 108%
- CCC(C)(Sc1nc(C)ccc1C#N)C(=O)O (centres unmarked) [CBK287098] — lower, 88.7%
- O=c1c2c3c(sc2nc(SCc2nc4ccccc4[nH]2)n1Cc1ccco1)CCC3 [CBK268306] — higher, 104%
